Here are results for 17 molecules from patent US20250223268A1, “4-Methylsulfonylbenzamide Compound, Preparation Method, Herbicidal Composition And Use” (Jiangsu Flag Chemical Industry Co., Ltd., priority 2022, published 2025).

Holding throughout (assay): Greenhouse herbicidal activity assay, post-emergence
Assay type in all cases: in vivo
What all share (conditions): Post-emergence test, rate 150 g a.i./hm^2, grade by fresh weight inhibition rate

The subject of experiment [1] is Echinochloa crusgalli. The method in brief:
(§1)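 Graded A (≥80%) to E (<20%) by fresh weight inhibition, read 14-21 days after spraying. Plants were pot-grown in a growth chamber and received foliar application at the 3-6 leaf stage, being air-dried and returned to the chamber afterwards.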

Experiment [2] concerns Leptochloa chinensis. In a few lines: as §1
Experiment [3] concerns Cyperus iria. In a few lines: as §1
The test system of experiment [4] is Digitaria sanguinalis. The method in brief: as §1
Experiment [5] relates to Eclipta prostrata. The method in brief: as §1

With `CCC(C)Sc1c(S(C)(=O)=O)ccc(C(=O)Nc2nnc(C)o2)c1Cl` (racemic) [Compound 3-16], the “Control efficacy grade, Echinochloa crusgalli” value in experiment [1] is on record as “A (Fresh weight inhibition rate≥80% to 100%)”. Moreover, the “Control efficacy grade, Leptochloa chinensis” value in experiment [2] is reported as “A (Fresh weight inhibition rate≥80% to 100%)”. Moreover, the “Control efficacy grade, Cyperus iria” value in experiment [3] was “A (Fresh weight inhibition rate≥80% to 100%)”. Also, the “Control efficacy grade, Digitaria sanguinalis” value in experiment [4] was “A (Fresh weight inhibition rate≥80% to 100%)”. For the same molecule, the “Control efficacy grade, Eclipta prostrata” value in experiment [5] is “A (Fresh weight inhibition rate≥80% to 100%)”.
`CCCSc1c(S(C)(=O)=O)ccc(C(=O)Nc2nnc(CC)o2)c1Cl` [Compound 3-383]: the “Control efficacy grade, Echinochloa crusgalli” value in experiment [1] was “A (Fresh weight inhibition rate≥80% to 100%)”. In addition, the “Control efficacy grade, Leptochloa chinensis” value in experiment [2] is “B (Fresh weight inhibition rate≥260% to <80%)”. Moreover, the “Control efficacy grade, Cyperus iria” value in experiment [3] is “A (Fresh weight inhibition rate≥80% to 100%)”. Moreover, the “Control efficacy grade, Digitaria sanguinalis” value in experiment [4] is on record as “B (Fresh weight inhibition rate≥260% to <80%)”. Moreover, the “Control efficacy grade, Eclipta prostrata” value in experiment [5] is “A (Fresh weight inhibition rate≥80% to 100%)”.
For `C=CC[S+]([O-])c1c(S(C)(=O)=O)ccc(C(=O)Nc2ncnn2C)c1Cl` (racemic) [Compound 2-68], the “Control efficacy grade, Echinochloa crusgalli” value in experiment [1] is “A (Fresh weight inhibition rate≥80% to 100%)”. Besides, the “Control efficacy grade, Leptochloa chinensis” value in experiment [2] is “A (Fresh weight inhibition rate≥80% to 100%)”. Besides, the “Control efficacy grade, Cyperus iria” value in experiment [3] is reported as “A (Fresh weight inhibition rate≥80% to 100%)”. Moreover, the “Control efficacy grade, Digitaria sanguinalis” value in experiment [4] was “A (Fresh weight inhibition rate≥80% to 100%)”. Moreover, in experiment [5], the “Control efficacy grade, Eclipta prostrata” value is “A (Fresh weight inhibition rate≥80% to 100%)”.
With `CCc1nnc(NC(=O)c2ccc(S(C)(=O)=O)c(SC3CCC3)c2Cl)o1` [Compound 3-424], the “Control efficacy grade, Echinochloa crusgalli” value in experiment [1] is recorded as “A (Fresh weight inhibition rate≥80% to 100%)”. Besides, the “Control efficacy grade, Leptochloa chinensis” value in experiment [2] is recorded as “A (Fresh weight inhibition rate≥80% to 100%)”. Moreover, in experiment [3], the “Control efficacy grade, Cyperus iria” value is listed as “A (Fresh weight inhibition rate≥80% to 100%)”. In addition, in experiment [4], the “Control efficacy grade, Digitaria sanguinalis” value is listed as “A (Fresh weight inhibition rate≥80% to 100%)”. Moreover, the “Control efficacy grade, Eclipta prostrata” value in experiment [5] was “A (Fresh weight inhibition rate≥80% to 100%)”.
For `CC(C)CSc1c(S(C)(=O)=O)ccc(C(=O)Nc2nnco2)c1Cl` [Compound 3-293], the “Control efficacy grade, Echinochloa crusgalli” value in experiment [1] is “A (Fresh weight inhibition rate≥80% to 100%)”. In addition, the “Control efficacy grade, Leptochloa chinensis” value in experiment [2] is reported as “A (Fresh weight inhibition rate≥80% to 100%)”. Besides, the “Control efficacy grade, Cyperus iria” value in experiment [3] is on record as “A (Fresh weight inhibition rate≥80% to 100%)”. Moreover, the “Control efficacy grade, Digitaria sanguinalis” value in experiment [4] is “A (Fresh weight inhibition rate≥80% to 100%)”. Besides, the “Control efficacy grade, Eclipta prostrata” value in experiment [5] is reported as “A (Fresh weight inhibition rate≥80% to 100%)”.
As for `CCCSc1c(S(C)(=O)=O)ccc(C(=O)Nc2nnco2)c1Cl` [Compound 3-267, 2-chloro-4-(methylsulfonyl)-N-(1,3,4-oxadiazol-2-yl)-3-(propylthio)benzamide], the pest or weed control at 150 g/ha in experiment [1] (Echinochloa crus-galli, read-out: Control efficacy grade, Echinochloa crusgalli) was 80 to 100%; in experiment [2] (Dinebra chinensis, read-out: Control efficacy grade, Leptochloa chinensis) it was 80 to 100%; in experiment [3] (Cyperus iria, read-out: Control efficacy grade, Cyperus iria) it was 80 to 100%; in experiment [4] (Digitaria sanguinalis, read-out: Control efficacy grade, Digitaria sanguinalis), 80 to 100%; in experiment [5] (Eclipta prostrata, read-out: Control efficacy grade, Eclipta prostrata) it was 80 to 100%.
`CS(=O)(=O)c1ccc(C(=O)Nc2nnco2)c(Cl)c1SCC(F)(F)F` [Compound 3-323]: in experiment [1], the “Control efficacy grade, Echinochloa crusgalli” value is on record as “A (Fresh weight inhibition rate≥80% to 100%)”. Further, the “Control efficacy grade, Leptochloa chinensis” value in experiment [2] is listed as “A (Fresh weight inhibition rate≥80% to 100%)”. For the same molecule, the “Control efficacy grade, Cyperus iria” value in experiment [3] is “A (Fresh weight inhibition rate≥80% to 100%)”. Besides, in experiment [4], the “Control efficacy grade, Digitaria sanguinalis” value is “A (Fresh weight inhibition rate≥80% to 100%)”. In addition, the “Control efficacy grade, Eclipta prostrata” value in experiment [5] is on record as “A (Fresh weight inhibition rate≥80% to 100%)”.
As for `Cc1nonc1NC(=O)c1ccc(S(C)(=O)=O)c([S+]([O-])C2CCC2)c1Cl` (racemic) [Compound 4-43], the “Control efficacy grade, Echinochloa crusgalli” value in experiment [1] is recorded as “A (Fresh weight inhibition rate≥80% to 100%)”. Also, the “Control efficacy grade, Leptochloa chinensis” value in experiment [2] is recorded as “A (Fresh weight inhibition rate≥80% to 100%)”. Further, in experiment [3], the “Control efficacy grade, Cyperus iria” value is recorded as “A (Fresh weight inhibition rate≥80% to 100%)”. For the same molecule, the “Control efficacy grade, Digitaria sanguinalis” value in experiment [4] is reported as “A (Fresh weight inhibition rate≥80% to 100%)”. In addition, the “Control efficacy grade, Eclipta prostrata” value in experiment [5] is reported as “A (Fresh weight inhibition rate≥80% to 100%)”.
Turning to `Cn1nnnc1NC(=O)c1ccc(S(C)(=O)=O)c([S+]([O-])CC2CC2)c1Cl` (racemic) [Compound 1-28], the “Control efficacy grade, Echinochloa crusgalli” value in experiment [1] is “A (Fresh weight inhibition rate≥80% to 100%)”. For the same molecule, the “Control efficacy grade, Leptochloa chinensis” value in experiment [2] was “A (Fresh weight inhibition rate≥80% to 100%)”. For the same molecule, the “Control efficacy grade, Cyperus iria” value in experiment [3] was “A (Fresh weight inhibition rate≥80% to 100%)”. In addition, in experiment [4], the “Control efficacy grade, Digitaria sanguinalis” value was “A (Fresh weight inhibition rate≥80% to 100%)”. In addition, the “Control efficacy grade, Eclipta prostrata” value in experiment [5] is “A (Fresh weight inhibition rate≥80% to 100%)”.
`C=CC[S+]([O-])c1c(S(C)(=O)=O)ccc(C(=O)Nc2nnc(C)o2)c1Cl` (racemic) [Compound 3-113]: the “Control efficacy grade, Echinochloa crusgalli” value in experiment [1] was “A (Fresh weight inhibition rate≥80% to 100%)”. The “Control efficacy grade, Leptochloa chinensis” value in experiment [2] was “A (Fresh weight inhibition rate≥80% to 100%)”. Besides, the “Control efficacy grade, Cyperus iria” value in experiment [3] is listed as “A (Fresh weight inhibition rate≥80% to 100%)”. In addition, the “Control efficacy grade, Digitaria sanguinalis” value in experiment [4] is listed as “A (Fresh weight inhibition rate≥80% to 100%)”. Further, the “Control efficacy grade, Eclipta prostrata” value in experiment [5] is recorded as “A (Fresh weight inhibition rate≥80% to 100%)”.
`CC(C)Sc1c(S(C)(=O)=O)ccc(C(=O)Nc2nnnn2C)c1Cl` [Compound 1-6]: the “Control efficacy grade, Echinochloa crusgalli” value in experiment [1] was “A (Fresh weight inhibition rate≥80% to 100%)”. Also, the “Control efficacy grade, Leptochloa chinensis” value in experiment [2] is “A (Fresh weight inhibition rate≥80% to 100%)”. Moreover, the “Control efficacy grade, Cyperus iria” value in experiment [3] is “A (Fresh weight inhibition rate≥80% to 100%)”. In addition, the “Control efficacy grade, Digitaria sanguinalis” value in experiment [4] is reported as “A (Fresh weight inhibition rate≥80% to 100%)”. In addition, the “Control efficacy grade, Eclipta prostrata” value in experiment [5] is recorded as “A (Fresh weight inhibition rate≥80% to 100%)”.
Consider `CS(=O)(=O)c1ccc(C(=O)Nc2nnco2)c(Cl)c1SCCC#N` [Compound 3-373], for which the “Control efficacy grade, Echinochloa crusgalli” value in experiment [1] was “A (Fresh weight inhibition rate≥80% to 100%)”. The “Control efficacy grade, Leptochloa chinensis” value in experiment [2] is listed as “A (Fresh weight inhibition rate≥80% to 100%)”. For the same molecule, the “Control efficacy grade, Cyperus iria” value in experiment [3] is “A (Fresh weight inhibition rate≥80% to 100%)”. Also, the “Control efficacy grade, Digitaria sanguinalis” value in experiment [4] is on record as “A (Fresh weight inhibition rate≥80% to 100%)”. Moreover, the “Control efficacy grade, Eclipta prostrata” value in experiment [5] is listed as “A (Fresh weight inhibition rate≥80% to 100%)”.
With `CC(C)Sc1c(S(C)(=O)=O)ccc(C(=O)Nc2nnco2)c1Cl` [Compound 3-272], the “Control efficacy grade, Echinochloa crusgalli” value in experiment [1] is recorded as “A (Fresh weight inhibition rate≥80% to 100%)”. Besides, in experiment [2], the “Control efficacy grade, Leptochloa chinensis” value is listed as “A (Fresh weight inhibition rate≥80% to 100%)”. The “Control efficacy grade, Cyperus iria” value in experiment [3] is “A (Fresh weight inhibition rate≥80% to 100%)”. In addition, the “Control efficacy grade, Digitaria sanguinalis” value in experiment [4] was “C (Fresh weight inhibition rate≥40% to <60%)”. In experiment [5], the “Control efficacy grade, Eclipta prostrata” value is recorded as “A (Fresh weight inhibition rate≥80% to 100%)”.
Take `Cc1nnc(NC(=O)c2ccc(S(C)(=O)=O)c(SCC#N)c2Cl)o1` [Compound 3-192]: the “Control efficacy grade, Echinochloa crusgalli” value in experiment [1] is reported as “A (Fresh weight inhibition rate≥80% to 100%)”. Moreover, the “Control efficacy grade, Leptochloa chinensis” value in experiment [2] is reported as “A (Fresh weight inhibition rate≥80% to 100%)”. In addition, the “Control efficacy grade, Cyperus iria” value in experiment [3] is recorded as “A (Fresh weight inhibition rate≥80% to 100%)”. Further, the “Control efficacy grade, Digitaria sanguinalis” value in experiment [4] is on record as “A (Fresh weight inhibition rate≥80% to 100%)”. Moreover, in experiment [5], the “Control efficacy grade, Eclipta prostrata” value is “A (Fresh weight inhibition rate≥80% to 100%)”.
`CCC(C)S(=O)(=O)c1c(S(C)(=O)=O)ccc(C(=O)Nc2nnc(C)o2)c1Cl` (single isomer, unassigned) [Compound 3-25]: the “Control efficacy grade, Echinochloa crusgalli” value in experiment [1] was “A (Fresh weight inhibition rate≥80% to 100%)”. Further, in experiment [2], the “Control efficacy grade, Leptochloa chinensis” value is listed as “A (Fresh weight inhibition rate≥80% to 100%)”. In addition, the “Control efficacy grade, Cyperus iria” value in experiment [3] is reported as “A (Fresh weight inhibition rate≥80% to 100%)”. In experiment [4], the “Control efficacy grade, Digitaria sanguinalis” value is given as “A (Fresh weight inhibition rate≥80% to 100%)”. The “Control efficacy grade, Eclipta prostrata” value in experiment [5] was “A (Fresh weight inhibition rate≥80% to 100%)”.
`CC(C)c1nnc(NC(=O)c2ccc(S(C)(=O)=O)c([S+]([O-])C3CCC3)c2Cl)o1` (racemic) [Compound 3-541]: the “Control efficacy grade, Echinochloa crusgalli” value in experiment [1] was “C (Fresh weight inhibition rate≥40% to <60%)”. In experiment [2], the “Control efficacy grade, Leptochloa chinensis” value is “A (Fresh weight inhibition rate≥80% to 100%)”. Further, the “Control efficacy grade, Cyperus iria” value in experiment [3] is “A (Fresh weight inhibition rate≥80% to 100%)”. The “Control efficacy grade, Digitaria sanguinalis” value in experiment [4] was “B (Fresh weight inhibition rate≥260% to <80%)”. For the same molecule, in experiment [5], the “Control efficacy grade, Eclipta prostrata” value is on record as “A (Fresh weight inhibition rate≥80% to 100%)”.
On to `CS(=O)(=O)c1ccc(C(=O)Nc2nnc(C3CC3)o2)c(Cl)c1[S+]([O-])CCCl` (racemic) [Compound 3-727], for which the “Control efficacy grade, Echinochloa crusgalli” value in experiment [1] is recorded as “A (Fresh weight inhibition rate≥80% to 100%)”. Also, the “Control efficacy grade, Leptochloa chinensis” value in experiment [2] is given as “A (Fresh weight inhibition rate≥80% to 100%)”. In experiment [3], the “Control efficacy grade, Cyperus iria” value is “A (Fresh weight inhibition rate≥80% to 100%)”. In addition, in experiment [4], the “Control efficacy grade, Digitaria sanguinalis” value is listed as “A (Fresh weight inhibition rate≥80% to 100%)”. Further, the “Control efficacy grade, Eclipta prostrata” value in experiment [5] is “A (Fresh weight inhibition rate≥80% to 100%)”.
